Results from patent publication US20090170862A1, “USE OF C-KIT INHIBITORS FOR THE TREATMENT OF MYELOMA” (priority 2001, published 2009).

Experiments:
MM cell lines = assay: Proliferation of MM cell lines and patient tumor cells ([3H]-thymidine uptake); assay type: cell-based, human
Method: FIGS. 2 to 4. Dose-related effect of PTK787 on proliferation of MM cell lines and patient tumor cells. MM.1S, MM.1R, RPMI 8226, patient PCL cells, patient MM cells and HUVE cells were incubated in the presence of 0 (□), 1 (▪), 5 ( ? ), 10 ( ? ) and 20 ( ? ) μM of PTK787. In addition, HUVE cells are also exposed to 0.01 ( ? ), and 0.1 ( ? ) μM of drug. Proliferation is measured as a percentage of 3H-dT uptake relative to standard. The experiments are performed in triplicate, and standard deviation bars are shown.
RPMI 8226 and U266 human MM cell lines are obtained from the American Type Culture Collection (ATCC) of Rockville, Md. Patient derived MM cells are purified from patient BM samples, as described by Y. T. Tai, G. Teoh, Y. Shima, et al in J. Immunol. Methods 235:11, 2000. All human MM cell lines are cultured in RPMI-1640 media (Sigma Chemical, St. Louis, Mo.), containing 10% fetal bovine serum (FBS), 2 mmol/L L-glutamine (L-glut, GIBCO, Grand Island, N.Y.), 100 U/mL penicillin and […] streptomycin (P/S, GIBCO). MM patient cells are ≧95% CD38+, CD45RA−. Bone marrow stromal cells (BMSCs) are prepared from aspirates of MM patients as well as healthy donors as described by D. Gupta, S. Treon, Y. Shima, et al in Leukemia, 2001 and S. Gartner and H. S. Kaplan in Proc. Natl. Acad. Sci. USA 77:4756, 1980. […]

BMSCs = assay: Viability of BMSCs (trypan blue exclusion and MTS assay); assay type: cell-based, human; conditions: with PTK787 in the co-culture system
patient PCL cells = assay: Proliferation of patient PCL cells in an adhesion co-culture system with BMSCs; assay type: cell-based, human; conditions: 5 μM, compared to controls, p<0.0001
Method: (§1) Co-culturing of MM.1S cells or patient PCL cells with BMSCs increases growth of tumor cells by 1.8 to 2.8-fold, compared to the combination of BMSCs and MM cells alone. Addition of PTK787 (5 μM) to this co-culture system decreases proliferation of both MM.1S cells and patient PCL cells by 75% (p<0.0001), when compared to controls. These effects are observed whether the BMSCs are derived from a normal donor or patient BM.

MM.1S cells [1] = assay: Proliferation of MM.1S cells in an adhesion co-culture system with BMSCs; assay type: cell-based, human; conditions: 5 μM, compared to controls, p<0.0001
Method: as §1

MM.1S cells [2] = conditions: for inhibition of proliferation of MM.1S cells: 24 h, dexamethasone 0.1 or 1 μM, PTK787 5 μM; for inhibition of proliferation of MM.1S cells / inhibition of MM.1S proliferation with IL-6: p<0.001; for inhibition of MM.1S proliferation without IL-6: comparison arm
Method: MM cells are first starved for 12 h in RPMI-1640 media containing 2% fetal bovine serum, and then plated into 96-well microtiter plates (Costar, Cambridge, Mass.), in the presence of drug or DMSO control. Experiments are also performed in the presence or absence of VEGF165 (R and D Systems). Proliferation is measured by the incorporation of [^3H]-thymidine (NEN Products, Boston, Mass.). Specifically, cells are pulsed with [^3H]-thymidine (0.5 μCi/well) for the last 6 h of 48 h cultures, harvested onto glass filters with an automatic cell harvester (Cambridge Technology, Cambridge, Mass.), and counted using a LKB Betaplate scintillation counter (Wallac, Gaithersburg, Md.). Measurement of cell viability is performed colorimetrically by MTS assay, utilizing the CellTiter96 AQueous One Solution Reagent (Promega, Madison, Wis.). Cells are exposed to the MTS for the last 2 h of 48 h cultures, and absorbance is measured using an ELISA plate reader (Molecular Devices Corp., Sunnyvale, Calif.) at OD of 570 nm.

MM.1S cells [3] = assay: Proliferation of MM cells in a modified Boyden chamber transwell co-culture system with BMSCs; assay type: cell-based, human; conditions: 5 μM; transwell co-culture with BMSCs without contact; 48 h; p<0.001
Method: Proliferation is measured in a modified Boyden chamber transwell system, using 24-well plates with a […] pore size inserts (Costar). BMSCs (4×10^4 cells/well) are plated in the lower chamber, starved, and incubated in drug as described above. MM cells (20×10^4 cells/ml) are then placed in the upper chamber (insert), and [^3H]-thymidine uptake in the individual chambers is measured at 48 h as described above.
MM.1 S cells are placed in the upper chamber of a transwell co-culture system in order to preclude direct contact between MM cells and BMSCs, but nonetheless allow for diffusion of humoral factors. Despite the lack of contact between the two cell types, uptake of [^3H]-dT by MM.1S cells incubated with BMSCs is increased by 2.2-fold (p<0.0001) at 48 h. […] When PTK787 (5 μM) is used in this co-culture system, it reduces proliferation of MM.1S cells by 62% (p<0.001).

[4] = system: human carcinomas (A431, Ls174T, HT-29, PC-3); conditions: Cancer Res. 60: 2178, 2000, cited from earlier work
[5] = system: A431, Ls174T, HT-29, PC-3 tumor cells; conditions: cited from earlier work
MM.1S cells [6] = assay: Survival / cell death of MM.1S cells in the presence of dexamethasone and IL-6; assay type: cell-based, human; conditions: for inhibition of survival of MM.1S cells: 24 h, dexamethasone 0.1 or 1 μM, PTK787 5 μM, p<0.001
Method: MM.1S cells are incubated for 24 h in 1% RPMI, in the presence or absence of dexamethasone (0.1 or 1 μM), PTK787 (5 μM), IL-6 (20 and 100 ng/ml) and VEGF (50 ng/ml).

MM.1S cells [7] = assay: Transwell cell migration assay (modified Boyden chamber); assay type: cell-based, human
Method: MM.1S cells are exposed to PTK787 at concentrations 0, 1, 5 and 10 μM for 4 h and then added to the upper chamber of a transwell system. To the lower wells are added either VEGF (□, 10 ng/ml) or CD40 (Δ, 10 ng/ml), and cells are allowed to migrate to the lower chamber over a 5 h period. A lower chamber without any VEGF or CD40 (∘) serves as a control. Migrated cells are counted on a Beckman Coulter counter, and a migration index is obtained as described in Example 2, below. Experiments are performed in triplicate, and standard deviation bars are shown.
The migration assay is performed in a modified Boyden chamber system; using a 24 well plate with 8 μm pore size inserts. Prior to the assay, the upper and lower chambers are pre-coated with fibronectin (10 μg/ml). MM.1S cells are starved in 2% RPMI media for 6 hours prior to assay, then treated with drug or DMSO control for 4 h. MM cells (2×10^6 cells/ml) are then placed into the upper chamber of the transwell system. To the lower chamber is added RPMI (1% FBS), 0 or 10 ng/ml of VEGF165, or an activating MoAb to CD40 (10 ng/ml). The plates are then incubated at 37° C. for 6 h, and then cells in the lower chamber are harvested. The number of live migrated cells is gated and measured using a Beckman Coulter counter. A migration index is calculated to compare migration of cells relative to control. The migration index is defined herein as the percentage of live migrated cells in the sample (with or without drug, and ±VEGF), divided by the percentage of live migrated cells in the control (no drug, no VEGF).

IL-6 = IL-6 levels in supernatants of MM.1S/BMSC co-culture (ELISA); conditions: MM.1S/BMSC co-culture supernatants, 48 h
Method: Cytokine levels are measured in supernatants from the co-culture system described above. VEGF and IL-6 concentrations are measured using commercially available ELISA kits (R&D Systems). Statistical significance of differences is determined using unpaired Student's t-test. The minimal level of significance is considered as p<0.05.
Supernatants obtained from a co-culture of MM.1S cells with BMSCs are isolated at 48 h, and IL-6 levels are measured using ELISA assay.

Clc1ccc(Nc2nnc(Cc3ccncc3)c3ccccc23)cc1 [PTK787]
proliferation of MM.1S, Dex-resistant MM.1R, RPMI, patient PCL and patient MM cells (MM cell lines; 0-20 μM PTK787, 3H-dT uptake): decreases, in a dose dependent manner
proliferation in MM cell lines with or without VEGF (MM cell lines; PTK787 (1 to 5 μM), presence or absence of VEGF): abrogates proliferation both in the presence or absence of VEGF
viability of BMSCs (BMSCs): 95%
decrease of proliferation of patient PCL cells (patient PCL cells): 75%
decrease of proliferation of MM.1S cells (MM.1S cells [1]): 75%
inhibition of proliferation of MM.1S cells (MM.1S cells [2]): 35%
inhibition of MM.1S proliferation with IL-6 (MM.1S cells [2]): 64.7%
inhibition of MM.1S proliferation without IL-6 (MM.1S cells [2]): 39.3%
reduction of proliferation of MM.1S cells (MM.1S cells [3]): 62%
growth of human carcinomas transplanted orthotopically into mice ([4]; A431, Ls174T, HT-29, PC-3): inhibits the growth
vessel density in the tumor tissues [4]: does reduce vessel density
direct effect on tumor cells [5]: does not have a direct effect
inhibition of survival of MM.1S cells (MM.1S cells [6]): 46%
cell death of MM.1S cells without IL-6 (MM.1S cells [6]; PTK787 alone, second value of '54% vs. 65%'): 65%
cell death of MM.1S cells with IL-6 (MM.1S cells [6]; PTK787 plus IL-6, first value of '54% vs. 65%', p<0.01): 54%
VEGF-induced migration of MM.1S cells (MM.1S cells [7]; 1 μM PTK787, VEGF 10 ng/ml, p=0.002): reduced to baseline levels
baseline and VEGF-induced migration of MM.1S cells (MM.1S cells [7]; 5 and 10 μM PTK787): further reduces
migration of MM.1S cells induced by CD40 (MM.1S cells [7]; activating MoAb to CD40 10 ng/ml): does not significantly inhibit
decrease of IL-6 concentrations (IL-6): 70%

C[C@@H]1C[C@H]2[C@@H]3CCC4=CC(=O)C=C[C@]4(C)[C@@]3(F)[C@@H](O)C[C@]2(C)[C@@]1(O)C(=O)CO [Dexamethasone, dexamethasone, reference compound]
inhibition of proliferation of MM.1S cells (MM.1S cells [2]): 58%
inhibition of MM.1S proliferation with IL-6 (MM.1S cells [2]): 16%
inhibition of MM.1S proliferation without IL-6 (MM.1S cells [2]): 70.5%
inhibition of survival of MM.1S cells (MM.1S cells [6]): 83%
